According to the supplement of paper PMC11127212:

How the values were obtained:
[1] = retention time on BEH HILIC column (20 min gradient, 0.4 mL/min); higher = later elution; details: LC: HILIC
Experimental: (§1)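 Reference standards (20-100 uM) were separated by HILIC UPLC (BEH HILIC, 45 °C): acidic pH 3.0 ammonium formate/formic acid for ESI+ and basic pH 9.0 ammonium acetate/ammonia for ESI-. They were analysed on a Synapt G2-Si traveling-wave IMS-QTOF with nitrogen drift gas (WH 30 V; WV 800 m/s in ESI+ and 1000 m/s in ESI-).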

[2] = collision cross section (TWIMS, N2) of ion [M-H]-; higher = larger gas-phase ion cross section; details: ionization: ESI negative; LC: HILIC, pH 9.0 ammonium acetate
Experimental: as §1

[3] = collision cross section (TWIMS, N2) of ion [M+Na]+; higher = larger gas-phase ion cross section; details: ionization: ESI positive; LC: HILIC, pH 3.0 ammonium formate
Experimental: as §1, with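 “ESI-). CCS (TWCCSN2, Å2) was calibrated with Major Mix IMS/TOF and LockCCS leucine enkephalin; inter-day RSD was <1%.” for “ESI-).”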

[4] = ionization: ESI negative, pH 9.0 ammonium acetate
[5] = ionization: ESI positive, pH 3.0 ammonium formate

| Structure (SMILES) | retention time on BEH HILIC column [1, 4] [min] | retention time on BEH HILIC column [1, 5] [min] | collision cross section [2] [Å²] | collision cross section [3] [Å²] |
| --- | --- | --- | --- | --- |
| CCCCCCCCCCCCCCCC(=O)O [Palmitic acid] | 0.77 | 0.72 | 170.14 | 179.96 |
| CCCCCCCCCCCCCCCCCC(=O)O [Stearic acid] | 0.73 | 0.75 | 184.42 | 186.65 |
| CCCCCC(=O)O [Caproic acid] | 0.9 | 1.25 | 129.59 | 130.13 |
| CCCCCCC(=O)O [Heptanoic acid] | 0.9 | 0.77 | 135.55 | 134.35 |
| O[C@H]1[C@H](O)[C@@H](O)[C@H](O)[C@@H](O)[C@H]1O [myo-inositol] | 5.92 | 5.84 | 133.54 | 146 |
| CCCCCCCCCCCCCCCCCCC(=O)O [Nonadecanoic acid] | 0.73 | 0.77 | 188.17 | 190.13 |
| CCCCCCCCCC(=O)O [Capric acid] | 0.75 | 0.75 | 151.28 | 143.53 |
| NC(=O)NC1NC(=O)NC1=O (configuration not stated) [Allantoin] | 1.8 | 1.56 | 126.16 | 136.32 |
| OC[C@H]1O[C@@](CO)(O[C@H]2O[C@H](CO)[C@@H](O)[C@H](O)[C@H]2O)[C@@H](O)[C@@H]1O [Sucrose] | 6.6 | 6.77 | 169.11 | 171.56 |
| CC(=O)Oc1ccc(O)cc1 [4-hydroxyphenyl acetate] | 0.67 | 0.88 | 129.47 | 138.25 |

More lines, now with the values ahead:

| retention time on BEH HILIC column [1, 4] [min] | retention time on BEH HILIC column [1, 5] [min] | collision cross section [2] [Å²] | collision cross section [3] [Å²] | Structure (SMILES) |
| --- | --- | --- | --- | --- |
| 11.9 | 8.86 | 146.38 | 151.18 | O=C(CO)[C@@H](O)[C@H](O)[C@H](O)COP(=O)(O)O [Fructose 6-phospahte] |
| 3.16 | 3.16 | 128.01 | 133.34 | OC[C@@H](O)[C@H](O)[C@@H](O)CO [D-xylitol] |
| 2.8 | 2.24 | 126.73 | 139.19 | O=C(O)/C=C(/CC(=O)O)C(=O)O [cis-aconitic] |
| 3.16 | 3.12 | 126.54 | 133.34 | OC[C@@H](O)C(O)[C@H](O)CO [D-arabitol] |
| 4.84 | 5.56 | 133.44 | 140.03 | OC[C@@H](O)[C@H](O)[C@H](O)[C@@H](O)CO [Galactitol] |
| 0.8 | 1 | 139.96 | 145.99 | O=C(O)CCCCCCCC(=O)O [Azelaic acid] |
| 3.57 | 2.85 | 126.54 | 133.34 | OC[C@@H](O)[C@@H](O)[C@@H](O)CO [Ribitol] |
| 0.95 | 0.75 | 139.96 | 151.23 | CCOC(=O)CC(C)C(=O)OCC (configuration not stated) [Diethyl methylsuccinate] |
